Test results from US9145411B2, “Substituted amino-pyrimidine derivatives” (Asana Biosciences, LLC, priority 2012, dated 2015).

Assays:
PI3 kinase isoform β = PI3 kinase isoform β (Homo sapiens, UniProt P42338); assay: PI3 Kinase TR-FRET assay, isoform β; format: biochemical; conditions: read-out: inhibition of PI3 kinase isoform β, IC50
Protocol: (§1) The ability of compounds of the invention to inhibit PI3K activity was determined in a homogeneous TR-FRET assay using a PI3K assay kit (Millipore, USA; cat #33-016) according to manufacturer's instructions. PI3-Kinases (isoforms α, β, γ and δ) catalyze the phosphorylation of phosphatidylinositol, PIP2 to PIP3 in the presence of ATP and Mg^2+. The PIP3 product is detected by displacement of biotin-PIP3 from an energy transfer complex consisting of Europium labeled anti-GST monoclonal antibody, a GST-tagged PH domain, biotinylated PIP3 and Streptavidin-APC. Excitation of Europium in the complex results in an energy transfer to the APC and a fluorescence emission at 665 nm. The PIP3 product displaces biotin-PIP3 from the complex resulting in a loss of energy transfer and thus a decrease in signal.
To test for the ability of compounds to inhibit the activity of PI3Kα (wild-type), exemplary compounds of formula (I) were dissolved in DMSO and directly distributed into 384-well plates at a volume of 0.5 μL. […] Fluorescence was measured at 615 and 665 nm upon excitation at 340 nm in a Victor™ V5 fluorometer (Perkin Elmer, USA). The fluorescence emission ratio at 665 to 615 nm, proportional to the kinase activity, was plotted against the compound concentration to generate dose-response curves and IC50 values were determined using GraphPad Prism® 5 software. […]

PC3 cells = assay: XTT assay for cell viability, PC3 cells; format: cell-based; conditions: Homo sapiens, PC-3; PC3 cell proliferation, 96 hours
Procedure, shortened: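 Log-phase PC3 cells (1000/well) were seeded for 24 h, then exposed to serially diluted compounds (DMSO dilutions) for 96 h. Viability was measured by XTT dye conversion at 37 °C, with absorbance read at 465 nm. EC50 was obtained from a sigmoidal dose-response fit.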

pAkt(S473) = assay: In-cell Western assay, pAkt(S473), PC3 cells; format: cell-based; conditions: Homo sapiens, PC-3, 2 hours incubation
Protocol: (§2) Cells from human prostate cancer cell line PC3 (American Type Culture Collection (ATCC), Manassas, Va. 20108 USA) were seeded at an optimal density of 22,000 cell/well in 96-well plates containing Ham's F12K medium (90 μL) and incubated overnight. The compound dilutions were carried out in 100% DMSO followed by a dilution in the medium. Test compounds were added in serial dilutions to the wells and incubated for 2 hours. The cells were washed and fixed with 4% paraformaldehyde. After incubation at room temperature for 1 hour in the dark, blocking was done for 2 hours at room temperature. Primary antibodies for pAkt(S473) ([…] phosphorylated at serine 473), pAkt(T308) (Akt phosphorylated at threonine 308) and for pS6RP (S235/236) (phosphorylated at serine 235/236) (commercially available from Cell Signaling Technology®, whose protocol was followed for the in-cell western assay, were diluted to the required concentration and added to the corresponding wells followed by overnight incubation at 4° C. Eu-labeled rabbit (PE) (Perkin-Elmer USA catalog #AD0106) secondary antibody was added and incubated for 2 hours at room temperature. Delfia® enhancement solution (cat #1244-105, Perkin Elmer USA) was subsequently added to the plate before taking the reading at 615 nm with excitation wavelength of 340 nm, after which 0.5 μg/mL of Hoechst® 33258 dye (Catalog #86140-5, Sigma) was added to the plate and fluorescence emission was read at 460 nm with 355 nm excitation, to evaluate the correction factor. IC50 values were calculated using a sigmoidal dose-response curve fit in GraphPad Prism® v5 software.

PI3 kinase isoform γ = PI3 kinase isoform γ (Homo sapiens, UniProt P48736); assay: PI3 Kinase TR-FRET assay, isoform γ; format: biochemical; conditions: read-out: inhibition of PI3 kinase isoform γ, IC50
Chain of PI3 kinase isoform γ (P48736 whole entry, canonical isoform): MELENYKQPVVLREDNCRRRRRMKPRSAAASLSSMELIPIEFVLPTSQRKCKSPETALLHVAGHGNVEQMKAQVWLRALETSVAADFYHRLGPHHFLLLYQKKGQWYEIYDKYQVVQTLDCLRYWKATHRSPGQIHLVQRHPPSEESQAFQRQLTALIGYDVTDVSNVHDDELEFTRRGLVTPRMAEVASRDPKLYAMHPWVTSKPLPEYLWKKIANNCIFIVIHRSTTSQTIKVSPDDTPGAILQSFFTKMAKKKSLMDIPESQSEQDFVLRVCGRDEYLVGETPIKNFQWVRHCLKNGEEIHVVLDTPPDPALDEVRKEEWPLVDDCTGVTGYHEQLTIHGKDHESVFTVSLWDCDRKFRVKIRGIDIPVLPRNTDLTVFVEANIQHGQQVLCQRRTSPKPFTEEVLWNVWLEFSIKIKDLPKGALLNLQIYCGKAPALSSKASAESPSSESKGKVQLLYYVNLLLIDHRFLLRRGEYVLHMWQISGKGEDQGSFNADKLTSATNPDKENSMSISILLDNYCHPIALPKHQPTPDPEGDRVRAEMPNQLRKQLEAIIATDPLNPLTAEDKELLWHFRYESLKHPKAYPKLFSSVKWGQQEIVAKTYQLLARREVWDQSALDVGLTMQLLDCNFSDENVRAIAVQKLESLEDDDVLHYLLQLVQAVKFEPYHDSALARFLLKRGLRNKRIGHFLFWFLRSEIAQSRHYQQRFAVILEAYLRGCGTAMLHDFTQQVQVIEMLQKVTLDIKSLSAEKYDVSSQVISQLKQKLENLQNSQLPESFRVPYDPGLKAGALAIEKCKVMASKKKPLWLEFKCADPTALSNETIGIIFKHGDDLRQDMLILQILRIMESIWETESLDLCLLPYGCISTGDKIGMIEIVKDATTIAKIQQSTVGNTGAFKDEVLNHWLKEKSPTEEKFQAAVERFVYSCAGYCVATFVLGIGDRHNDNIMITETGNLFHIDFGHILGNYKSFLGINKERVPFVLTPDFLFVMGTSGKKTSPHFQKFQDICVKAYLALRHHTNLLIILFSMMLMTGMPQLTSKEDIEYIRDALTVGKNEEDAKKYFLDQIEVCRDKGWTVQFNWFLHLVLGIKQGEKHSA
Protocol: as §1
(§3) To test for the ability of compounds to inhibit the activity of PI3Kα (wild-type), exemplary compounds of formula (I) were dissolved in DMSO and directly distributed into 384-well plates at a volume of 0.5 μL. 14.5 μL of P110/P85α/PIP2 mixture in buffer (obtained from the Millipore kit) containing MgCl2 (40 mM) and DTT (5 mM) was added to compound wells and incubated for 60 minutes at room temperature. P110/P85α was expressed in SF9 insect cells and purified nickel column extraction. Five ng of wild-type P110/P85α was used in the assay. The kinase reaction was started by the addition of ATP. The assay concentrations of both PIP2 and ATP were 10 μM. The reaction mixture was incubated for 30 minutes at room temperature and was terminated by the addition of stop mix and detection mix. Fluorescence was measured at 615 and 665 nm upon excitation at 340 nm in a Victor™ V5 fluorometer (Perkin Elmer, USA). The fluorescence emission ratio at 665 to 615 nm, proportional to the kinase activity, was plotted against the compound concentration to generate dose-response curves and IC50 values were determined using GraphPad Prism® 5 software.
(§4) The activity of PI3 kinase isoforms β, γ and δ were assayed in a similar manner to the assay protocol described above for PI3Kα, by substituting the appropriate p110/p85 isoform for the p110α/p85α. Compounds of formula (I) caused inhibition of PI3 kinase isoforms β, γ and δ as determined by these assays. For example, the compounds of Examples 3 and 21 each caused inhibition of PI3 kinase isoform β with IC50 values<500 nM. The compounds of Examples 3, 7, 21, 47, 48 and 49 each caused inhibition of PI3 kinase isoform γ with IC50 values<500 nM. The compounds of Example 3, 7, 47, 48, and 49 caused inhibition of PI3 kinase isoform δ with IC50 values<1 μM.

pAkt(T308) = assay: In-cell Western assay, pAkt(T308), PC3 cells; format: cell-based; conditions: Homo sapiens, PC-3, 2 hours incubation
Protocol: as §2

PI3Kα (wild-type) = target: T1, PI3Kα (wild-type) (Homo sapiens, UniProt P42336); assay: PI3 Kinase TR-FRET assay, PI3Kα (wild-type); format: biochemical; conditions: wild-type P110/P85α, 10 μM ATP
T1 construct: made in house; host or cells: SF9 insect cells
T1 sequence (P42336 whole entry, species assumed): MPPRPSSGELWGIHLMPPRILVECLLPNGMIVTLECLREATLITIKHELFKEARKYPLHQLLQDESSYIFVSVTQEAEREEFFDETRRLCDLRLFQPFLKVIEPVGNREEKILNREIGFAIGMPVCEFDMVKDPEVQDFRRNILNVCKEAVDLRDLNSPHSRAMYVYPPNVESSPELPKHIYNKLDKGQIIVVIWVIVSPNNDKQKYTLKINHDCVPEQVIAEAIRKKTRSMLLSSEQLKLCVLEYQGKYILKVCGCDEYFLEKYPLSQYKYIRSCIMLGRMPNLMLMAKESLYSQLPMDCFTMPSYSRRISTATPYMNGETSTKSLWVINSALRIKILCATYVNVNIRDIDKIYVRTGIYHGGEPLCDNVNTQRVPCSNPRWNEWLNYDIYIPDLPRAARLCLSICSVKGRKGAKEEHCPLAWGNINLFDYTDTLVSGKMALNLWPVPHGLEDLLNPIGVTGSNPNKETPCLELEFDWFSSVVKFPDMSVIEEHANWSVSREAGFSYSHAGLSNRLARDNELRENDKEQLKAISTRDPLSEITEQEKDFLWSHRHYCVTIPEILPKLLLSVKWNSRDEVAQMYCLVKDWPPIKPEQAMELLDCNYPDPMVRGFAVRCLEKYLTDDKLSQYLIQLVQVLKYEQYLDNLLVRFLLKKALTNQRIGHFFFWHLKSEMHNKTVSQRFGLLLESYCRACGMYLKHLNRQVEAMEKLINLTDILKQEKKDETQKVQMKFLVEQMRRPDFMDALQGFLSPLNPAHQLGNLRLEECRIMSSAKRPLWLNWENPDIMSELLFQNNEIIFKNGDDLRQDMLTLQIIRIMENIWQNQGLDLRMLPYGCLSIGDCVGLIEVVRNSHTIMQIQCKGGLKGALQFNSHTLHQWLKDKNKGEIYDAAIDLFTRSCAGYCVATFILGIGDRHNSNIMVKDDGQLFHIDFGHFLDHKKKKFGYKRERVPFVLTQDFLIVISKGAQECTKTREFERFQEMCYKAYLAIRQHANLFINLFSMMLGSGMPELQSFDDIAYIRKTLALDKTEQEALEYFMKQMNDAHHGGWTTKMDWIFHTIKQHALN
T1 sequence (P27986 whole entry partner, species assumed): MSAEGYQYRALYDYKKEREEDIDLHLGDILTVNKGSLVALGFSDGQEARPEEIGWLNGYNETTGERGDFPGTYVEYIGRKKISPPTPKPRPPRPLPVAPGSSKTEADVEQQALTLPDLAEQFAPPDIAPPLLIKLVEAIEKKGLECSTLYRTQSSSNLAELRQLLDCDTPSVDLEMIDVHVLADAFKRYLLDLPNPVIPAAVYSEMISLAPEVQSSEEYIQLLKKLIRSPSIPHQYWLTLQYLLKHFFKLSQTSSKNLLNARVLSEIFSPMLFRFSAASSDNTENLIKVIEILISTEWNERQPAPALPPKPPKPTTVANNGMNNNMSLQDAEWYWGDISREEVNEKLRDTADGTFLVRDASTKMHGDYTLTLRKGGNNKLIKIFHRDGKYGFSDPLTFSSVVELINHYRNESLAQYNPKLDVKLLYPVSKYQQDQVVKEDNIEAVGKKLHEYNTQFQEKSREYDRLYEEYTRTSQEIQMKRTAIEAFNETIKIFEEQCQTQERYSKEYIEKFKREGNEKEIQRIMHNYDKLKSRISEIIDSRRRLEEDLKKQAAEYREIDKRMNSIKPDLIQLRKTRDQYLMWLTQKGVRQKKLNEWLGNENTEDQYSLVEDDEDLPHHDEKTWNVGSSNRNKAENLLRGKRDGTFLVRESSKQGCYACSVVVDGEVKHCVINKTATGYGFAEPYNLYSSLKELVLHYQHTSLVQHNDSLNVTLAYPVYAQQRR
Procedure, shortened: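 Sf9-expressed, Ni-purified p110/p85α (5 ng) with PIP2 was preincubated with compound for 60 min at room temperature in buffer with 40 mM MgCl2 and 5 mM DTT. The reaction ran 30 min at room temperature with 10 μM PIP2 and 10 μM ATP. The TR-FRET 665/615 nm ratio was used to derive IC50 from dose-response curves.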

PI3Kα mutation H1047R = PI3Kα mutation H1047R (Homo sapiens, UniProt P42336, H1047R); assay: PI3 Kinase TR-FRET assay, PI3Kα mutation H1047R; format: biochemical; conditions: read-out: inhibition of PI3Kα mutation H1047R, IC50
Chain of PI3Kα mutation H1047R (P42336 whole entry H1047R): as the sequence (P42336 whole entry, species assumed) above, with H1047R counted along it
Chain of PI3Kα mutation H1047R (P27986 whole entry partner): as the sequence (P27986 whole entry partner, species assumed) above
Protocol: as §1, §3
(§5) The activity of PI3Kα mutations H1047R and E545K were assayed in a similar manner to the assay protocol described above for PI3Kα (wild type). The compounds of formula (I) caused inhibition of PI3Kα mutations H1047R (a mutation associated with breast and gastric cancers) and E545K (a mutation associated with colorectal tumors, glioblastomas, gastric cancers, breast cancers, and lung cancers). For example, each of the compounds of Example 3, 7, 21, 47, 48 and 49 caused inhibition of each of the PI3Kα mutations H1047R and E545K with IC50 values<50 nM.

PI3Kα mutation E545K = PI3Kα mutation E545K (Homo sapiens, UniProt P42336, E545K); assay: PI3 Kinase TR-FRET assay, PI3Kα mutation E545K; format: biochemical; conditions: read-out: inhibition of PI3Kα mutation E545K, IC50
Chain of PI3Kα mutation E545K (P42336 whole entry E545K): as the sequence (P42336 whole entry, species assumed) above, with E545K counted along it
Chain of PI3Kα mutation E545K (P27986 whole entry partner): as the sequence (P27986 whole entry partner, species assumed) above
Protocol: as §1, §3, §5

mTOR kinase = target: T2, mTOR kinase (Homo sapiens, UniProt P42345); assay: mTOR kinase TR-FRET assay; format: biochemical; conditions: 20 μM ATP
T2 construct: purchased Millipore, USA
Procedure, shortened: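 Test compounds were pre-incubated 60 min with mTOR (5 ng), then ULight-p70 S6K (Thr389) peptide (50 nM) and ATP (20 μM) were added in HEPES 50 mM pH 7.5, EGTA, MnCl2 3 mM. After 60 min at room temperature, EDTA stop and Eu-anti-phospho antibody TR-FRET (665/615 nm) gave IC50 from sigmoidal variable-slope fits.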

pS6RP (S235/236) = assay: In-cell Western assay, pS6RP (S235/236), PC3 cells; format: cell-based; conditions: Homo sapiens, PC-3, 2 hours incubation
Protocol: as §2

PI3 kinase isoform δ = PI3 kinase isoform δ (Homo sapiens, UniProt O00329); assay: PI3 Kinase TR-FRET assay, isoform δ; format: biochemical; conditions: read-out: inhibition of PI3 kinase isoform δ, IC50
Chain of PI3 kinase isoform δ (O00329 whole entry, canonical isoform): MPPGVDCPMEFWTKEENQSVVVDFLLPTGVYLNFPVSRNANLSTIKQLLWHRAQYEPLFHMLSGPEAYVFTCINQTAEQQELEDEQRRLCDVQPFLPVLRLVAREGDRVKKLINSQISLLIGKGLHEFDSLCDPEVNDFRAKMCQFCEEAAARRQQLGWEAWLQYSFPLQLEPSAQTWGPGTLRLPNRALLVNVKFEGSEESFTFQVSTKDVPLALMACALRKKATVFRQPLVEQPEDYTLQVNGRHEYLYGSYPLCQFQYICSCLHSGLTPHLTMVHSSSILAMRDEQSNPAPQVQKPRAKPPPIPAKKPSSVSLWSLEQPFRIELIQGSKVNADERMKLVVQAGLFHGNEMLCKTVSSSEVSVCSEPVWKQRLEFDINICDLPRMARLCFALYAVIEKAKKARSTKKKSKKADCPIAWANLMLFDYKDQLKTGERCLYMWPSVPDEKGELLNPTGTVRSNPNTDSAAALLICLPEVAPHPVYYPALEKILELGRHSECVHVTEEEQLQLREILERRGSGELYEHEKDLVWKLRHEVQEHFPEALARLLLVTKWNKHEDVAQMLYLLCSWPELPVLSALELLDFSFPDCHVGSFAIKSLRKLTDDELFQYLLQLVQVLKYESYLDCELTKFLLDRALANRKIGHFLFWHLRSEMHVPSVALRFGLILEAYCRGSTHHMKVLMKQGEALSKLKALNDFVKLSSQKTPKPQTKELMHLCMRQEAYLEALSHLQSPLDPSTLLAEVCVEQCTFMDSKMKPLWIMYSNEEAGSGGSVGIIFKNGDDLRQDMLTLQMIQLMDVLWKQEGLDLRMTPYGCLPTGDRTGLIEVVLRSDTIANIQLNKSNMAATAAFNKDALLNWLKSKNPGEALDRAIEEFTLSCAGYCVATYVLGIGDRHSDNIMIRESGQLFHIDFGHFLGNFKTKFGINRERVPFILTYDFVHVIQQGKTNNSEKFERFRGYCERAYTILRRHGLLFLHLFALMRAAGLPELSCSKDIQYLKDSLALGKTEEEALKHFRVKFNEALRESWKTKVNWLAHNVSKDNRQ
Chain of PI3 kinase isoform δ (P27986 whole entry partner, canonical isoform): as the sequence (P27986 whole entry partner, species assumed) above
Protocol: as §1, §3, §4

U87MG tumor cells = assay: In vivo efficacy study (tumor growth suppression), U87MG xenograft; conditions: U87MG xenograft mice, after 12 to 14 days of dosing, 50 mg/kg qd po

Row | IC50 (PI3 kinase isoform β) | IC50 (PC3 cells) | IC50 (pAkt(S473)) | IC50 (PI3 kinase isoform γ) | IC50 (pAkt(T308)) | IC50 (PI3Kα (wild-type)) | IC50 (PI3Kα mutation H1047R) | IC50 (PI3Kα mutation E545K) | IC50 (mTOR kinase) | IC50 (pS6RP (S235/236)) | IC50 (PI3 kinase isoform δ) | Compound | tumor growth inhibition relative to vehicle control group (U87MG tumor cells)
1 | < 500 nM | < 100 nM | 100 to 500 nM | < 500 nM | 100 to 500 nM | < 50 nM | < 50 nM | < 50 nM | < 50 nM |  |  | CS(=O)(=O)Nc1cccc(-c2cnc3c(N4CCOCC4)nc(-c4cnc(N)nc4)nc3c2)c1 [Example 21, N-(3-(2-(2-amino-pyrimidin-5-yl)-4-morpholinopyrido[3,2-d]-pyrimidin-7-yl)phenyl)-methanesulfonamide] | 
2 |  | 100 to 500 nM | 501 to 5000 nM |  | 100 to 500 nM | < 50 nM |  |  | 50 to 200 nM | 100 to 500 nM |  | Nc1ncc(-c2nc(N3CCOCC3)c3ncc(-c4cccnc4F)cc3n2)cn1 [Example 24, 5-(7-(2-fluoropyridin-3-yl)-4-morpholino-pyrido[3,2-d]pyrimidin-2-yl)pyrimidin-2-amine] | 
3 |  | 100 to 500 nM |  | < 500 nM | < 100 nM | < 50 nM | < 50 nM | < 50 nM | < 50 nM |  | < 1000 nM | C[C@H](O)C(=O)Nc1cccc(-c2cnc3c(N4CCOCC4)nc(-c4cnc(N)nc4)nc3c2)c1 [Example 47, (S)-N-(3-(2-(2-amino-pyrimidin-5-yl)-4-morpholinopyrido[3,2-d]pyrimidin-7-yl)phenyl)-2-hydroxypropanamide] | 
4 |  | 100 to 500 nM |  | < 500 nM | 100 to 500 nM | < 50 nM | < 50 nM | < 50 nM | < 50 nM |  | < 1000 nM | CC(C)(O)C(=O)Nc1cccc(-c2cnc3c(N4CCOCC4)nc(-c4cnc(N)nc4)nc3c2)c1 [Example 48, N-(3-(2-(2-amino-pyrimidin-5-yl)-4-morpholinopyrido[3,2-d]pyrimidin-7-yl)phenyl)-2-hydroxy-2-methylpropanamide] | 
5 |  | < 100 nM | < 100 nM | < 500 nM | 100 to 500 nM | < 50 nM | < 50 nM | < 50 nM | < 50 nM | < 100 nM | < 1000 nM | CC(C)(C#N)C(=O)Nc1cccc(-c2cnc3c(N4CCOCC4)nc(-c4cnc(N)nc4)nc3c2)c1 [Example 49, N-(3-(2-(2-amino-pyrimidin-5-yl)-4-morpholinopyrido[3,2-d]pyrimidin-7-yl)phenyl)-2-cyano-2-methylpropanamide] | 
6 |  | < 100 nM | < 100 nM |  | < 100 nM | < 50 nM |  |  | < 50 nM | < 100 nM |  | CC(=O)Nc1cccc(-c2cnc3c(N4CCOCC4)nc(-c4cnc(N)nc4)nc3c2)c1F [Example 52, N-(3-(2-(2-amino-pyrimidin-5-yl)-4-morpholinopyrido[3,2-d]pyrimidin-7-yl)-2-fluorophenyl)acetamide] | 
7 |  | 100 to 500 nM | < 100 nM |  | 100 to 500 nM | < 50 nM |  |  | < 50 nM | < 100 nM |  | Cc1ccc(C(=O)Nc2cccc(-c3cnc4c(N5CCOCC5)nc(-c5cnc(N)nc5)nc4c3)c2)o1 [Example 59, N-(3-(2-(2-amino-pyrimidin-5-yl)-4-morpholinopyrido[3,2-d]pyrimidin-7-yl)phenyl)-5-methylfuran-2-carboxamide] | 
8 |  | < 100 nM | 100 to 500 nM |  | < 100 nM | < 50 nM |  |  | < 50 nM | < 100 nM |  | CC(=O)Nc1cc(-c2cnc3c(N4CCOCC4)nc(-c4cnc(N)nc4)nc3c2)ccc1F [Example 119, N-(5-(2-(2-amino-pyrimidin-5-yl)-4-morpholinopyrido[3,2-d]-pyrimidin-7-yl)-2-fluorophenyl)acetamide] | 
9 |  |  |  |  |  |  |  |  |  |  |  | CC(=O)OC(C)OC(=O)N(C(C)=O)c1cccc(-c2cnc3c(N4CCOCC4)nc(-c4cnc(N)nc4)nc3c2)c1 (stereo not drawn) [Example 120, 1-((acetyl(3-(2-(2-amino-pyrimidin-5-yl)-4-morpholinopyrido[3,2-d]-pyrimidin-7-yl)-phenyl)carbamoyl)oxy) ethyl acetate] | more than 70%
